Measurements taken from patent publication US9127085B2, “Compositions of humanized notch fusion proteins and methods of treatment” (THE TRUSTEES OF COLUMBIA UNIVERSITY IN THE CITY OF NEW YORK, priority 2007, dated 2015).
“Also recorded” adds a separate entry of the source.

Key:
[1] = system: C2C12 cells; assay: C2C12 myoblast differentiation; type: cell-based; settings: C2C12 transduced with Foxo1-ADA
Experimental: FIGS. 38A-38C These Figures show the quantitative analysis of C2C12 differentiation. […] Results from differentiation experiments were analyzed by scoring the number of Myosin-immunostained cells as percentage of all DAPI-positive cells. […] We carried out reporter gene assays using the canonical Foxo1-responsive Igfbp1 promoter (left panel) and the Hes1 promoter (right panel) in cells co-transfected with Foxo1-ADA or DBD-Foxo1ADA. […] An asterisk indicates P<0.01 by ANOVA.
C2C12 cells were differentiated as described (3, 4). Foxo1-ADA, Notch1-IC, Jagged1, Csl and Notch decoy adenoviral and mammalian expression vectors have been described (36, 51). We generated retroviruses expressing Foxo1-ADA and Notch1-IC using the pQCXIH vector. To generate Notch decoy (pAdlox Notch1ECD-Fc), the extracellular domain of Notch1(bp 241-4229, GenBank accession# X57405) was fused in frame with human IgG Fc tag and cloned into pAdlox. Retroviral supernatant was produced from cells transiently co-transfected with pVSV-G vector and designated pQCXIH vector into GP2-293 cells (BD Bioscience). To generate the DNA binding-deficient Foxo1, we replaced N208 and H212 with alanine and arginine, respectively, using QuikChange Mutagenesis Kit (Stratagene). The mutations were then cloned in the backbone of the Foxo1-ADA mutant. […]

[2] = system: Ad-Notch4 transduced HUVEC; assay: Endothelial co-culture morphogenesis assay (Notch4-induced extensions on fibrin gel); type: cell-based, human; settings: 200 nM compound E vs vehicle
Experimental: HUVEC morphogenesis was assessed as described (11), modified by adding co-culturing of Ad-Notch4 transduced HUVEC with Notch1 decoy- or Fc-HUVEC transfectants. Ad-GFP at 10 m.o.i. was co-transduced in HUVECs with Ad-LacZ or Ad-Notch4 at 30 m.o.i and 48 h later seeded on fibrin gels (24-well plates, 1.5×10^4 cells/well). Stable HUVEC-mock (HUVEC-X), HUVEC-Fc, or HUVEC-N1ECDFc transfectants were seeded at 1.35×10^5 cells/well, and vehicle or 200 nM compound E added 3 h later. Seven days later, HUVEC morphogenesis was calculated as the number of GFP-positive cells with processes compared to total GFP-positive cells/field.

[3] = system: Ad-N1IC-transduced HUVEC; assay: Notch (Ad-N1IC)-induced HUVEC budding; type: cell-based, human
Experimental: HUVEC were transduced with either Ad-LacZ or Ad-N1IC at 40 MOI. FIGS. 23A-23C show the effect of inhibitors for receptor tyrosine kinases on Notch-induced HUVEC budding. FIG. 23A is a photograph of budding of Ad-N1IC-transduced HUVEC treated with PD166866, ZD1893 at 1 μM and SU5416 at 0.5 μM. […] FIGS. 23D-E show induction of Flt-1 expression in Ad-N1IC-transduced HUVEC. […] FIGS. 23F-G show promotion of Notch-induced HUVEC budding with PlGF stimulation. Ad-N1IC-transduced HUVEC were cultured on collagen gel with SFM, instead of complete medium, in the absence or presence of 50 ng/ml PlGF. […] FIGS. 23H-I show the effect of Flt-1 siRNA transfection on Flt1 expression. Ad-N1IC-transduced HUVEC were transfected with 200 pmol of either control (CT) or Flt-1 siRNA. […] Ad-N1IC-transduced HUVEC were transfected with either 100 or 200 pmol of siRNA and cultured on collagen gel for 2 days.
Either Ad-LacZ or Ad-N1IC-HUVEC at a MOI of 40 pfu/cell were cultured on collagen gel for 5 days in the absence or presence of GM6001 at 50 μm.
For making collagen gels, an ice-cold solution of porcine type I collagen (Nitta gelatin, Tokyo, Japan) was mixed with 10×RPMI1640 medium and neutralization buffer at the ratio of 8:1:1. 400 μl aliquots of collagen gel were then added to 24-well plates and allowed to gel for at least 1 hour at 37° C. Following adenoviral infection (above), HUVEC was harvested and plated at 1.3×10^5 cells per well onto the top of the collagen gel in 24-well plates in 0.8 ml of EGM2 medium. HUVEC became nearly confluent 48 hours after plating. After seeding, medium was changed every 2 days for 1 week. Sprouting was observed and photographs taken after 8 days with an Olympus digital camera mounted to a microscope. For quantification of the number of sprouts, 5 fields per each well were randomly selected and sprouting was counted under microscopy in a blind manner by two investigators.

[4] = system: Jagged1 and Dll1 expression in Mm5MT-FGF4 cells; assay: Quantitative RT-PCR of Notch ligands in Mm5MT-FGF4 transfectants; type: cell-based, mouse; settings: 1 μm PD166866, 7 days
Experimental: Mm5MT transfectants were cultured 7 days with vehicle or 1 μm PD166866 (inhibitor of FGF receptor-kinase), total RNA isolated (RNeasy mini-kit, Qiagen, Valencia, Calif.), and first-strand cDNA synthesized (SuperScript™ First-Strand Synthesis System, Invitrogen). Quantitative RT-PCR for β-actin, FGF4, Jagged1, Dll1, and Dll4 (SYBER Green PCR Master Mix, 7300 Real Time PCR; Applied Biosystems, Foster City, Calif.) was performed in triplicate and values normalized for β-actin. Values are shown for fold induction compared to controls (primer sequences available on request).

[5] = system: retinal neovascularization; settings: intravitreal injection; hypoxic mouse model; cited from earlier work
[6] = system: VEGF induced retinal microvascular permeability and vasoconstriction; settings: subcutaneous injection; diabetic rat model; cited from earlier work
[7] = system: CBF1 promoter activity in Ad-VEGF-infected HUVEC; assay: VEGF-induced Notch signaling, CBF1 (CSL) promoter reporter in HUVEC; type: cell-based, human; settings: SU5416 treatment of Ad-VEGF-transduced HUVEC
Experimental: To determine VEGF-induced Notch signaling, HUVEC which were infected with adenovirus were used. HUVEC plated 1-day prior in 6 well plates at 8.0×10^5 were infected with either Ad-LacZ as control or Ad-VEGF at indicated m.o.i. in the presence or absence of Ad-N1ECD/Fc. Two days after infection, infected HUVEC were re-seeded into 24-well plate at 1.5×10^5 cell in triplicate and cultured for 24 hours, and then transfected with 12.5 ng pRL-SV40 (Promega) and 137.5 ng pGA981-6 using Effectene transfection reagent (Qiagen). Cells were harvested either 1 or 2 days post-transfection and luciferase activity was determined by using the Dual-Luciferase® Reporter Assay System (Promega).
One can measure Notch signaling function by measuring transcriptional activity of CBF1 promoter, which is activated by binding of Notch-IC to CBF1. We measured CBF1 promoter activity in HUVEC which was infected with adenovirus encoding VEGF-165 at different MOI (FIG. 6). Induction of CBF1 promoter was clearly detected in Ad-VEGF-infected HUVEC, compared to Ad-LacZ-infected cells in the MOI dependent manner. […] Thus VEGF induced Notch signaling activity.

[8] = Ad-N1IC at 40 MOI, receptor tyrosine kinase inhibitors at 1 μM

Molecule: C[C@H](NC(=O)Cc1cc(F)cc(F)c1)C(=O)N[C@H]1N=C(c2ccccc2)c2ccccc2N(C)C1=O [Compound E]
- rescue of Foxo1-ADA inhibition of myoblast differentiation [1]: also rescued Foxo1-ADA inhibition of myoblast differentiation
- Notch4-induced HUVEC extensions ([2]; p<0.0001): clearly inhibited extensions
- Notch4-induced HUVEC extensions ([2]; p<0.0001, listed as compound E): blocks Notch4-induced extensions

Molecule: CNC(=O)[C@H](Cc1c[nH]c2ccccc12)NC(=O)[C@@H](CC(=O)NO)CC(C)C [GM6001]
- budding of Ad-N1IC-HUVEC ([3]; GM6001 at 50 μm, 5 days, collagen and fibrin gel): clearly decreased budding of Ad-N1IC-HUVEC

Molecule: COc1cc(OC)cc(-c2cc3cnc(N)nc3nc2NC(=O)NC(C)(C)C)c1 [PD166866]
- FGF4-induced Jagged1 and Dll1 expression [4]: suppressed induction of both Jagged1 and Dll1; also recorded: reduction of Notch ligand expression
- budding of Ad-N1IC-HUVEC [3, 8]: Neither PD166866 or ZD1893 affected budding

Molecule: Clc1ccc(Nc2nnc(Cc3ccncc3)c3ccccc23)cc1 [PTK/ZK]
- retinal neovascularization [5]: reduces retinal neovascularization

Molecule: Cc1cc(C)c(/C=C2\C(=O)Nc3ccccc32)[nH]1 [SU5416]
- VEGF induced retinal microvascular permeability and vasoconstriction [6]: suppresses VEGF induced retinal microvascular permeability and vasoconstriction
- budding of Ad-N1IC-HUVEC [3, 8]: clearly inhibited
- viability of Ad-N1IC-HUVEC (dose-dependency of SU5416) ([3]; lower concentrations of SU5416): less reduction of viability at lower concentrations
- VEGF-induced CSL-luciferase reporter activity [7]: decreased VEGF-induced CSL-luciferase reporter activity

B1: PlGF: a selective ligand for Flt1 (protein, UniProt P49763 19-221, looked up)
Placenta growth factor: LPAVPPQQWALSAGNGSSEVEVVPFQEVWGRSYCRALERLVDVVSEYPSEVEHMFSPSCVSLLRCTGCCGDENLHCVPVETANVTMQLLKIRSGDRPSYVELTFSQHVRCECRHSPGRQSPDMPGDFRADAPSFLPPRRSLPMLFRMEWGCALTGSQSAVWPSSPVPEEIPRMHPGRNGKKQQRKPLREKMKPERCGDAVPRR
- increase in HUVEC buds containing multiple filopodia ([3]; 50 ng/ml PlGF, SFM): 250%
- increase in number of Ad-N1IC-HUVEC buds ([3]; 50 ng/ml PlGF, SFM, compared to the absence of PlGF): 150%
